Measured values published in patent US11142547B2, “Polypeptide and use thereof” (Genoimmune Therapeutics Co., Ltd., priority 2016, dated 2021).

System: CD8+ T cells
Experiment: In vitro stimulation of CD8+ T cells by polypeptide-loaded mature DCs, cell counting
Type: cell-based, human
Conditions: CD8+ T cells with polypeptide-specific mature DCs, counted on day 10; 2.5 × 10^6 before incubation
Experimental: Peripheral blood mononuclear cells (PBMCs) in 100 mL peripheral blood obtained from a HLA-A0201-positive healthy volunteer were isolated using the Ficoll solution, where CD8^+ T cells among the PBMCs were isolated with CD8 magnetic beads, and monocytes among the PBMCs were incubated by an adherence method. Such the monocytes were induced into immature dendritic cells (DCs) in the presence of GM-CSF (1000 U/ml) and IL-4 (1000 U/ml), followed by inducing to polypeptide-specific mature DCs in the presence of IFN-γ (100 U/ml) and CD40L (100 U/ml) as well as the subsequently added with the mutant polypeptide (depicted in […], SEQ ID NO:1), the mutant polypeptide's variant (depicted in […], SEQ ID NO:2), the mutant polypeptide's variant (depicted in […], SEQ ID NO:3), and the mutant polypeptide's variant (depicted in […], SEQ ID NO:4), respectively.
The CD8^+ T cells from the volunteer in a well were incubated with the mature DCs obtained, along with IL-21, with addition of IL-2 and IL-7 after 3 days' culture and addition IL-2 and IL-7 again at day 5 and day 7 respectively, after which the collected mixture of cells were counted on day 10, for use in the next enzyme-linked immune-spot assay (ELISPOT) and lactate dehydrogenase (LDH) assay.

| Sequence | Total number of cells in the well after incubation |
| --- | --- |
| FLLGNLFFL | 1.57 × 10^7 |
| FLLGNLFFV | 1.72 × 10^7 |
| FMLGNLFFL | 1.41 × 10^7 |
| FMLGNLFFV | 1.49 × 10^7 |
